Experimental data as given in PubChem BioAssay (NCI).
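Values below derive from 48-hour exposures of cells grown in 96-well plates, with endpoints linearly interpolated between the two concentrations bracketing the appropriate inhibition level. GI50 = concentration required for 50% inhibition of growth. At the TGI there is no net growth.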

What was measured:
Experiment in all cases: growth of human tumour cells (NCI), 48 h
SW-620 colon = test system: SW-620 colon
IGROV1 ovarian = test system: IGROV1 ovarian
SNB-19 CNS = test system: SNB-19 CNS
HT29 colon = test system: HT29 colon
HOP-62 NSCLC = test system: HOP-62 NSCLC
MALME-3M melanoma = test system: MALME-3M melanoma
KM12 colon = test system: KM12 colon
SK-MEL-2 melanoma = test system: SK-MEL-2 melanoma
UACC-257 melanoma = test system: UACC-257 melanoma
SK-OV-3 ovarian = test system: SK-OV-3 ovarian
SN12C renal = test system: SN12C renal
MCF7 breast = test system: MCF7 breast
OVCAR-5 ovarian = test system: OVCAR-5 ovarian
UO-31 renal = test system: UO-31 renal
BT-549 breast = test system: BT-549 breast
SF-268 CNS = test system: SF-268 CNS
HCT-116 colon = test system: HCT-116 colon
SF-539 CNS = test system: SF-539 CNS
DU-145 prostate = test system: DU-145 prostate
HOP-92 NSCLC = test system: HOP-92 NSCLC
SK-MEL-28 melanoma = test system: SK-MEL-28 melanoma
EKVX NSCLC = test system: EKVX NSCLC
HCT-15 colon = test system: HCT-15 colon
NCI-H460 lung = test system: NCI-H460 lung
CCRF-CEM leukemia = test system: CCRF-CEM leukemia
COLO 205 colon = test system: COLO 205 colon
MOLT-4 leukemia = test system: MOLT-4 leukemia
RPMI-8226 leukemia = test system: RPMI-8226 leukemia
UACC-62 melanoma = test system: UACC-62 melanoma
OVCAR-4 ovarian = test system: OVCAR-4 ovarian
RXF 393 renal = test system: RXF 393 renal
T-47D breast = test system: T-47D breast
NCI-H522 lung = test system: NCI-H522 lung
A549 NSCLC = test system: A549 NSCLC
NCI-H226 lung = test system: NCI-H226 lung
SR leukemia = test system: SR leukemia
MDA-MB-231 breast = test system: MDA-MB-231 breast
ACHN renal = test system: ACHN renal
OVCAR-8 ovarian = test system: OVCAR-8 ovarian
HCC-2998 colon = test system: HCC-2998 colon
PC-3 prostate = test system: PC-3 prostate
M14 melanoma = test system: M14 melanoma
NCI/ADR-RES ovarian = test system: NCI/ADR-RES ovarian
HL-60(TB) leukemia = test system: HL-60(TB) leukemia
TK-10 renal = test system: TK-10 renal
A498 renal = test system: A498 renal
OVCAR-3 ovarian = test system: OVCAR-3 ovarian

In the case of `Cc1cc(O)c(=O)cc2c1C[C@H]1CC(C)(C)/C=C/C[C@]3(C)Oc4cc(=O)c(O)cc(C)c4C[C@H]3C[C@H](O)[C@@]1(C)O2`, the GI50 (SW-620 colon) is reported as 2.91 nM, the TGI (SW-620 colon) is reported as > 16700 nM and the GI50 (IGROV1 ovarian) is reported as 16.3 nM. For the same compound, the TGI (IGROV1 ovarian) was > 16700 nM, the GI50 (SNB-19 CNS) was < 1.67 nM and the TGI (SNB-19 CNS) was > 16700 nM. The GI50 (HT29 colon) was 3.1 nM, the TGI (HT29 colon) was > 16700 nM and the GI50 (HOP-62 NSCLC) was 5.72 nM. The TGI (HOP-62 NSCLC) was 40.1 nM, the GI50 (MALME-3M melanoma) was 6.36 nM and the TGI (MALME-3M melanoma) was 32 nM. For the same compound, the GI50 (KM12 colon) was 7.17 nM, the TGI (KM12 colon) was > 16700 nM and the GI50 (SK-MEL-2 melanoma) was 8.83 nM. It also gave a TGI (SK-MEL-2 melanoma) of 496 nM, a GI50 (UACC-257 melanoma) of 13.5 nM and a TGI (UACC-257 melanoma) of 84.1 nM. The GI50 (SK-OV-3 ovarian) was 10.1 nM, the TGI (SK-OV-3 ovarian) was 95.2 nM and the GI50 (SN12C renal) was 5.11 nM. The TGI (SN12C renal) was > 4910 nM, the GI50 (MCF7 breast) was 3.81 nM and the TGI (MCF7 breast) was > 16700 nM. The GI50 (OVCAR-5 ovarian) was 13.6 nM, the TGI (OVCAR-5 ovarian) was > 16700 nM and the GI50 (UO-31 renal) was 7.73 nM. The TGI (UO-31 renal) was 53.2 nM, the GI50 (BT-549 breast) was 12.5 nM and the TGI (BT-549 breast) was > 16700 nM. The GI50 (SF-268 CNS) was 7.71 nM, the TGI (SF-268 CNS) was > 16700 nM and the GI50 (HCT-116 colon) was < 1.67 nM. The TGI (HCT-116 colon) was > 16700 nM, the GI50 (SF-539 CNS) was 10.4 nM and the TGI (SF-539 CNS) was 71.4 nM. The GI50 (DU-145 prostate) was 5.61 nM, the TGI (DU-145 prostate) was > 16700 nM and the GI50 (HOP-92 NSCLC) was 5.54 nM. For the same compound, the TGI (HOP-92 NSCLC) was 112 nM, the GI50 (SK-MEL-28 melanoma) was 15.6 nM and the TGI (SK-MEL-28 melanoma) was > 16700 nM. For the same compound, the GI50 (EKVX NSCLC) was 11 nM, the GI50 (HCT-15 colon) was 2.81 nM and the TGI (HCT-15 colon) was > 16700 nM. The GI50 (NCI-H460 lung) was < 1.67 nM, the TGI (NCI-H460 lung) was 17.3 nM and the GI50 (CCRF-CEM leukemia) was 10.1 nM. The TGI (CCRF-CEM leukemia) was > 16700 nM, the GI50 (COLO 205 colon) was 5.71 nM and the TGI (COLO 205 colon) was 25.8 nM. The GI50 (MOLT-4 leukemia) was 7.93 nM, the TGI (MOLT-4 leukemia) was > 16700 nM and the GI50 (RPMI-8226 leukemia) was 8.31 nM. The TGI (RPMI-8226 leukemia) was > 16700 nM, the GI50 (UACC-62 melanoma) was 27.2 nM and the TGI (UACC-62 melanoma) was 85.4 nM. For the same compound, the GI50 (OVCAR-4 ovarian) was 12 nM, the TGI (OVCAR-4 ovarian) was > 16700 nM and the GI50 (RXF 393 renal) was 10.5 nM. The TGI (RXF 393 renal) was 142 nM, the GI50 (T-47D breast) was 2.52 nM and the TGI (T-47D breast) was 16.3 nM. For the same compound, the GI50 (NCI-H522 lung) was 7.68 nM, the TGI (NCI-H522 lung) was 51.7 nM and the GI50 (A549 NSCLC) was 6.97 nM. The TGI (A549 NSCLC) was > 16700 nM, the GI50 (NCI-H226 lung) was 24 nM and the GI50 (SR leukemia) was 14.9 nM. For the same compound, the TGI (SR leukemia) was > 16700 nM, the GI50 (MDA-MB-231 breast) was 19.9 nM and the TGI (MDA-MB-231 breast) was > 16700 nM. For the same compound, the GI50 (ACHN renal) was 6.01 nM, the TGI (ACHN renal) was 50.4 nM and the GI50 (OVCAR-8 ovarian) was 6.1 nM. The TGI (OVCAR-8 ovarian) was > 16700 nM, the GI50 (HCC-2998 colon) was 20.3 nM and the TGI (HCC-2998 colon) was > 16700 nM. For the same compound, the GI50 (PC-3 prostate) was 5.38 nM, the TGI (PC-3 prostate) was > 16700 nM and the GI50 (M14 melanoma) was 11.7 nM. For the same compound, the TGI (M14 melanoma) was 140 nM, the GI50 (NCI/ADR-RES ovarian) was 8.45 nM and the GI50 (HL-60(TB) leukemia) was 20.2 nM. It also gave a TGI (HL-60(TB) leukemia) of 128 nM, a GI50 (TK-10 renal) of 8.98 nM and a GI50 (A498 renal) of 25.9 nM. The TGI (A498 renal) was 80.9 nM, the GI50 (OVCAR-3 ovarian) was 12 nM and the TGI (OVCAR-3 ovarian) was > 16700 nM.
